Experimental data: PMC11530130, “Peripherally restricted PICK1 inhibitor mPD5 ameliorates pain behaviors in murine inflammatory and neuropathic pain models” (JCI Insight, 2024)
Where “and” joins values, the source holds several entries; their conditions need not be identical. Identical values can stand only once.

Legend:
[1] = system: naive mice; assay: Open field locomotion; type: in vivo, mouse; parameters: total locomotion in open field, individual mice: unit not given here; settings: for open field locomotion per 5min bin (Fig S8A): individual animals, listed as myr
Description: (§1) Concentration 10 µmol/kg: Wild type mice were habituated to the experimental room for a minimum of 60 min before initiation of the experiment. Female and male mice were run on separate days. Mice were injected s.c. with 10 μmol/kg mPD5 or sterile PBS directly before being placed in open field boxes (40 cm x 40 cm x 80 cm) for 2.5 hours with up to four mice in boxes at any one time. A video camera placed above the open field recorded the animals’ behaviour and Ethovision XT 13 (Noldus) was used to track the distance travelled by the […]
(§2) Concentration 30 + 50 µmol/kg: Animals were habituated to the experimental room for a minimum of 60 min before initiation of the experiment. At initiation of experiment, the mice (all male) were injected subcutaneously (s.c.) with mPD5 (30 or 50 μmol/kg, pH adjusted to approximately 7 with 5 M NaOH) or 0.9 % saline (B.Braun, Germany) and left in their home cage for 60 min. After exactly one hour, the mice were placed in an open field (40 cm x 40 cm x 80 cm) for 60 min. A video camera placed above the open field recorded the animals’ […]
animal. The experiment was run in cohort with Figure 2B+C of (9)). […]

[2] = system: mice, CFA model of inflammatory pain; assay: CFA model of inflammatory pain, von Frey, s.c. administration; type: in vivo, mouse; settings: for paw withdrawal threshold (von Frey), individual mice / von Frey paw withdrawal threshold, ipsilateral paw (Fig S7A) / von Frey paw withdrawal threshold, contralateral paw (Fig S7A): listed as myr; for von Frey paw withdrawal threshold, ipsilateral paw (Fig S7A) / von Frey paw withdrawal threshold, contralateral paw (Fig S7A): CFA mice, individual animals; for von Frey paw withdrawal threshold, ipsilateral paw (Fig S7A): group 10; for von Frey paw withdrawal threshold, contralateral paw (Fig S7A): group 10_contra; for effect on mechanical hypersensitivity (PWT): CFA, male mice
Description: Unless otherwise specified, wild type C57BL/6NRj mice (male and female, aged eight-weeks at the beginning of experiment) were used (Janvier, France). Animals were allowed at least seven days of habituation to the animal facility before initiation of experiment. Mice were group-housed in a temperature-controlled room, maintained on a 12/12hour light/dark cycle (lights on at 6 A.M) with free access to standard rodent chow (Altromin 1342 (Brogaarden, […]
Drug administration and dosing for animal experiments.
All compounds were diluted in PBS or saline (depending on control) and administered through different routes i.t. (7 μL/mouse)), i.p. (10 μL/g) or s.c. (10 μL/g)) as indicated. Doses of mPD5 were based on previous studies with TPD5 (6) with a subcutaneous dose-range included in the CFA studies further guiding dose selection for SNI, STZ and CIBP studies. Pregabalin dose was chosen based on previous experience from Phenotype Expertise (Marseilles, France). In the CIBP model, a dose of […] morphine was chosen to avoid hyperactivity, though known to provide only partial pain relief in this model. In remaining experiments, 5 mg/kg morphine was chosen, known to provide full pain relief, except for the conditioned place preference experiment, where 10 mg/kg was used instead in accordance with literature. […]
µL of IS1 (internal standard in MeOH (Labetalol & tolbutamide & Verapamil & dexamethasone & glyburide & Celecoxib 100 ng/mL for each)) and the mixture was vortexed for 10 min at 800 rpm and centrifuged for 15 min at 3220 × g at 4 ℃. An aliquot of 65 µL supernatant was transferred to a clean 96-well plate and centrifuged for 5 min at 3220 × g at 4 ℃, then the supernatant was directly injected for LC-MS/MS analysis. Plasma half-lives were determined from three points in the elimination phase. In a separate experiment, biodistribution was assessed (plasma, CSF, spinal cord, whole brain) at two hours after single dose of 10 µmol/kg or one hour after last injection in the repeated administration paradigm (10 µmol/kg followed by four s.c. administrations of 2 µmol/kg with one hour between). At these times, plasma levels were similar between the two paradigms. Plasma, CSF, and tissue samples (kept at 4 ℃) were processed and analysed as described above.
as §1, §2
animal. The experiment was run in cohort with Figure 2B+C of (9)).
Induction of inflammatory pain (CFA model).
Injury was induced on the right hind paw, whereas the contralateral left hind paw was used as internal control of the C57BL/6J male and female mice (Janvier, France). The inflammatory pain was induced by injection of 50 μL undiluted Complete Freund’s Adjuvant (CFA) (F5881, Sigma) unilaterally into the intraplantar surface of the right hind paw, whereas control mice were injected with the same amount of 0.9 % saline (B. Braun, Germany). All intraplantar injections were performed with an insulin needle (0.3 mL BD Micro-Fine) while the animal […]

[3] = 1 hr post myr injection on day 2
[4] = 5 hrs post myr injection on day 2
[5] = 25 hrs post myr injection on day 2
[6] = day 2 after CFA injection (before dosing)

SMILES: CCCCCCCCCCCCCC(=O)N(CCOCCOCCC(=O)N[C@@H](Cc1c[nH]cn1)C(=O)N[C@@H](Cc1c[nH]c2ccccc12)C(=O)N[C@@H](CC(C)C)C(=O)N[C@@H](CCCCN)C(=O)N[C@H](C(=O)O)C(C)C)CCOCCOCCC(=O)N[C@@H](Cc1c[nH]cn1)C(=O)N[C@@H](Cc1c[nH]c2ccccc12)C(=O)N[C@@H](CC(C)C)C(=O)N[C@@H](CCCCN)C(=O)N[C@H](C(=O)O)C(C)C [mPD5, myristoyl-NPEG4-(HWLKV)2]
- overall locomotion in open field ([1]; both sexes, s.c. 10 μmol/kg, 150 minutes): overall locomotion was the same between groups
- open field locomotion per 5min bin (Fig S8A) ([1]; myr 30 sc, time bin 5): 9.792 and 20.2101 and 12.2703 and 19.016 and 30.6965 and 16.9458
- open field locomotion per 5min bin (Fig S8A) ([1]; myr 30 sc, time bin 10): 7.961 and 14.7148 and 7.884 and 18.3273
- open field locomotion per 5min bin (Fig S8A) ([1]; myr 30 sc, time bin 35): 5.715 and 10.7688 and 1.1088 and 12.4123 and 20.664 and 5.688
- open field locomotion per 5min bin (Fig S8A) ([1]; myr 30 sc, time bin 40): 11.1707 and 7.0291 and 1.7211 and 14.3893 and 18.0978 and 1.491
- open field locomotion per 5min bin (Fig S8A) ([1]; myr 30 sc, time bin 45): 1.78 and 8.087 and 5.349 and 15.4878 and 14.3776 and 5.135
- open field locomotion per 5min bin (Fig S8A) ([1]; myr 30 sc, time bin 50): 0.4107 and 5.0774 and 0.9705 and 10.9758 and 18.1434 and 3.971
- open field locomotion per 5min bin (Fig S8A) ([1]; myr 30 sc, time bin 55): 2.375 and 2.374 and 0.2143 and 12.0295 and 18.4127 and 1.9358
- open field locomotion per 5min bin (Fig S8A) ([1]; myr 30 sc, time bin 60): 5.982 and 3.075 and 0.4734 and 12.4806 and 21.7634 and 4.464
- open field locomotion per 5min bin (Fig S8A) ([1]; myr 50 sc, time bin 5): 18.0979 and 18.5029 and 7.528 and 18.9529 and 21.6506 and 14.4427 and 14.0357
- open field locomotion per 5min bin (Fig S8A) ([1]; myr 50 sc, time bin 10): 7.558 and 10.3984 and 2.952 and 12.1538 and 11.8366
- open field locomotion per 5min bin (Fig S8A) ([1]; myr 50 sc, time bin 35): 4.238 and 1.175 and 0.5656 and 5.236 and 7.164 and 13.3118 and 5.291
- open field locomotion per 5min bin (Fig S8A) ([1]; myr 50 sc, time bin 40): 1.639 and 8.588 and 1.093 and 4.076 and 7.194 and 14.7431 and 4.194
- open field locomotion per 5min bin (Fig S8A) ([1]; myr 50 sc, time bin 45): 1.4137 and 3.876 and 1.161 and 4.905 and 5.068 and 11.8464 and 7.804
- open field locomotion per 5min bin (Fig S8A) ([1]; myr 50 sc, time bin 50): 0.9835 and 5.464 and 0.5467 and 1.258 and 0.6955 and 8.558 and 8.666
- open field locomotion per 5min bin (Fig S8A) ([1]; myr 50 sc, time bin 55): 1.533 and 3.196 and 1.532 and 1.249 and 4.7524 and 13.5785 and 1.184
- open field locomotion per 5min bin (Fig S8A) ([1]; myr 50 sc, time bin 60): 1.079 and 3.0668 and 0.6715 and 10.3299 and 7.512 and 5.91 and 5.742
- total locomotion in open field, individual mice ([1]; s.c. 10 μmol/kg, 150 minutes): 177.609 and 107.816 and 106.645 and 245.588 and 278.41 and 220.659 and 185.74 and 353.332 and 277.158 and 380.649 and 207.835
- locomotor activity in open field ([1]; s.c. 30 or 50 μmol/kg): did not show any significant effect on locomotor activity
- paw withdrawal threshold (von Frey), individual mice ([2]; CFA day 2, s.c. 50 μmol/kg, contralateral paw, 1 hr post injection): 1 (3×) and 2 (3×)
- paw withdrawal threshold (von Frey), individual mice ([2]; CFA day 2, s.c. 50 μmol/kg, contralateral paw, 5 hrs post injection): 1 (3×) and 1.4 (3×)
- paw withdrawal threshold (von Frey), individual mice ([2]; CFA day 2, s.c. 50 μmol/kg, contralateral paw, 24 hrs post injection): 1.4 (2×) and 2 (3×) and 1
- paw withdrawal threshold (von Frey), individual mice ([2]; CFA day 2, s.c. 50 μmol/kg, contralateral paw, 262 hrs post injection): 1 and 2 (2×) and 1.4 (3×)
- paw withdrawal threshold (von Frey), individual mice ([2]; CFA day 2, s.c. 50 μmol/kg, ipsilateral paw, 1 hr post injection): 0.4 and 1.4 and 2 (2×) and 1 (2×)
- paw withdrawal threshold (von Frey), individual mice ([2]; CFA day 2, s.c. 50 μmol/kg, ipsilateral paw, 5 hrs post injection): 0.6 and 0.4 (2×) and 1 and 0.16 (2×)
- paw withdrawal threshold (von Frey), individual mice ([2]; CFA day 2, s.c. 50 μmol/kg, ipsilateral paw, 24 hrs post injection): 0.07 and 0.16 (2×) and 0.4 (3×)
- paw withdrawal threshold (von Frey), individual mice ([2]; CFA day 2, s.c. 50 μmol/kg, ipsilateral paw, 262 hrs post injection): 1 (2×) and 1.4 (3×) and 0.6
- paw withdrawal threshold (von Frey), individual mice ([2]; CFA dose range, s.c. 2 μmol/kg, contralateral paw, 1 hr post injection): 2 (4×) and 1.4
- paw withdrawal threshold (von Frey), individual mice ([2]; CFA dose range, s.c. 2 μmol/kg, ipsilateral paw, 1 hr post injection): 0.6 and 0.16 and 1 and 1.4 and 0.4
- paw withdrawal threshold (von Frey), individual mice ([2]; CFA dose range, s.c. 2 μmol/kg, ipsilateral paw, 5 hrs post injection): 0.4 and 0.16 (3×) and 0.6
- paw withdrawal threshold (von Frey), individual mice ([2]; CFA dose range, s.c. 10 μmol/kg, contralateral paw, 1 hr post injection): 1.4 (4×) and 2 (2×)
- paw withdrawal threshold (von Frey), individual mice ([2]; CFA dose range, s.c. 10 μmol/kg, contralateral paw, 5 hrs post injection): 1 (2×) and 1.4
- paw withdrawal threshold (von Frey), individual mice ([2]; CFA dose range, s.c. 10 μmol/kg, ipsilateral paw, 1 hr post injection): 0.4 and 0.6 (2×) and 1.4 and 0.16 and 1
- paw withdrawal threshold (von Frey), individual mice ([2]; CFA dose range, s.c. 10 μmol/kg, ipsilateral paw, 5 hrs post injection): 0.16 and 0.6 (2×) and 1.4
- paw withdrawal threshold (von Frey), individual mice ([2]; CFA dose range, s.c. 50 μmol/kg, contralateral paw, 1 hr post injection): 1.4 (4×) and 2
- paw withdrawal threshold (von Frey), individual mice ([2]; CFA dose range, s.c. 50 μmol/kg, contralateral paw, 5 hrs post injection): 2 (3×) and 1.4 (2×)
- paw withdrawal threshold (von Frey), individual mice ([2]; CFA dose range, s.c. 50 μmol/kg, ipsilateral paw, 1 hr post injection): 1.4 (3×) and 0.6 (2×)
- paw withdrawal threshold (von Frey), individual mice ([2]; CFA dose range, s.c. 50 μmol/kg, ipsilateral paw, 5 hrs post injection): 0.6 and 1 (2×)
- von Frey paw withdrawal threshold, ipsilateral paw (Fig S7A) [2, 3]: 0.6 (2×) and 1 (3×) and 0.4
- von Frey paw withdrawal threshold, ipsilateral paw (Fig S7A) [2, 4]: 0.16 (2×) and 0.07 (2×) and 0.4 and 0.6
- von Frey paw withdrawal threshold, ipsilateral paw (Fig S7A) [2, 5]: 0.07 (4×) and 0.16 (2×)
- von Frey paw withdrawal threshold, ipsilateral paw (Fig S7A) ([2]; baseline before CFA injection): 1 and 1.4 (5×)
- von Frey paw withdrawal threshold, ipsilateral paw (Fig S7A) [2, 6]: 0.07 (4×) and 0.16 (2×)
- von Frey paw withdrawal threshold, contralateral paw (Fig S7A) [2, 3]: 1 (4×) and 1.4 and 0.6
- von Frey paw withdrawal threshold, contralateral paw (Fig S7A) [2, 4]: 1 (4×) and 0.6 and 1.4
- von Frey paw withdrawal threshold, contralateral paw (Fig S7A) [2, 5]: 0.6 (2×) and 1 (4×)
- von Frey paw withdrawal threshold, contralateral paw (Fig S7A) ([2]; baseline before CFA injection): 1.4 (5×) and 1
- von Frey paw withdrawal threshold, contralateral paw (Fig S7A) [2, 6]: 1 (3×) and 0.6 (2×) and 1.4
- effect on mechanical hypersensitivity (PWT) ([2]; s.c. 50 μmol/kg, 5 hours after injection): significant reduction of mechanical hypersensitivity
- effect on mechanical hypersensitivity (PWT) ([2]; s.c. 2, 10 and 50 μmol/kg (all doses), 1 hour after administration): significant reversion of mechanical hypersensitivity
- effect on mechanical hypersensitivity (PWT) ([2]; single s.c. 50 μmol/kg, 1 hour after injection): reverted hypersensitivity
- reversion of CFA-induced mechanical hypersensitivity in female mice ([2]; female mice, s.c. 10 μmol/kg): confirmed
